Measured values: patent US12479823B2, “Compound for use in retinal diseases” (ZHUHAI UNITED LABORATORIES CO., LTD., priority 2018, dated 2025)
Read-outs that look alike come from different tables or passages of the source.

Tests used:
[1] = In vitro aldehyde capture capacity test (complexing with nonanal, HPLC at 254 nm); settings: for Area under the curve AUC / Slope (linear equation of percentage content of complexed products vs time): nonanal 1.0 eq, compound 1.0 eq, 20-23° C., 10-300 min, HPLC 254 nm; for Slope (linear equation of percentage content of complexed products vs time): in %/min
Protocol: Objective: dry eye disease is caused by inflammation in eyes, wherein the inflammation may produce aldehydes that will accelerate the inflammation symptoms and worsen the dry eye disease if not eliminated in time. In the experiment, a better compound was selected according to the complexing capacity of the drug and aldehydes in vivo by simulating the in vivo environment.
Procedures: Sulfobutyl-B-cyclodextrin (310 mg) was dissolved in a phosphate buffer (1.25 mL) to prepare a solution.
Nonanal (5.0 mg, 32 μmol, 1.0 eq) and triolein (300 mg) were added to a reaction flask at room temperature, after addition of the prepared solution described above, linoleic acid (300 mg) was added, and finally a dimethyl sulfoxide (0.15 ml) solution containing the compound (32 μmol, 1.0 eq) of the present disclosure was added; the reaction solution was reacted at 20-23° C.
The reaction solution was reacted under stirring for 10 min, 100 min, 200 min, and 300 min respectively, and sampled for high performance liquid chromatography after the solution was stratified after standing for 2 min.
Sampling method: 25 μl of an upper emulsified layer and 50 μl of a lower aqueous phase were sampled by a pipette, and samples were diluted with 1 mL of methanol.
The ultraviolet absorption of the nonanal was weak at 254 nm, so the nonanal had little overall effect on the content of complexed products. Therefore, the percentage contents of complexes at 254 nm under high performance liquid chromatography were compared to observe aldehyde capture and complexing capacities, as shown in FIG. 1 and Table 1:
Taking The compound 7 as an example, after 300 min of reaction, the analytical method for HPLC was XBRIGE 2.5 μm, 3.0*100 mm 5-80CD_XBEH_12 min_0.8.1 cm;
Retention time 6.689 min, 6.787 min, 6.966 min, and 7.102 min were absorption peaks of products complexed with monomolecular aldehyde;
Retention time 8.905 min, 9.010 min, and 9.075 min were absorption peaks of products complexed with bimolecular aldehyde.

CYP1A2 = biological target: T1, CYP1A2 (Homo sapiens, UniProt P05177); test: Inhibition of human liver microsomal cytochrome P450 CYP1A2; format: in vitro ADME; settings: human liver microsomes, probe substrate, NADPH
T1 construct: fused human liver microsomes were selected as a CYP450 enzyme source; from tissue; host or cells: pooled ("fused") human liver microsomes
T1 sequence (P05177 1-516): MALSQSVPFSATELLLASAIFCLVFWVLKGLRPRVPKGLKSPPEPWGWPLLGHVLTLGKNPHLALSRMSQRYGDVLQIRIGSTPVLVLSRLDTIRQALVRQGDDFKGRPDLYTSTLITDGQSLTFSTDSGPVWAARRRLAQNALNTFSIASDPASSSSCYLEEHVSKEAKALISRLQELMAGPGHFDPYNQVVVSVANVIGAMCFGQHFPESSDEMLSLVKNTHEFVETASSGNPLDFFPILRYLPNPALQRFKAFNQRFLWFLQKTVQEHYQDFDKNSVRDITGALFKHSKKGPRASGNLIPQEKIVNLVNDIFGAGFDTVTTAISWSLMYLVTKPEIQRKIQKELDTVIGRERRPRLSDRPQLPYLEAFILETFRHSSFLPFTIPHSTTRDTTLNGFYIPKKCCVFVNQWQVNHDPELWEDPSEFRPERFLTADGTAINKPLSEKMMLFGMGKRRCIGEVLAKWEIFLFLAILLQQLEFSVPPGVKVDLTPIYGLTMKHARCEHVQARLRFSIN
From the text: (§1) Objective: To study the inhibitory effect of compounds on human liver microsomal cytochrome P450. Experimental procedures: In the study on inhibition of the compounds on the human liver microsomal cytochrome P450 (CYP1A2, CYP2C9, CYP2C19, CYP2D6 and CYP3A4), fused human liver microsomes were selected as a CYP450 enzyme source. […]

CYP2C9 = biological target: T2, CYP2C9 (Homo sapiens, UniProt P11712); test: Inhibition of human liver microsomal cytochrome P450 CYP2C9; format: in vitro ADME; settings: human liver microsomes, probe substrate, NADPH
T2 construct: fused human liver microsomes were selected as a CYP450 enzyme source; from tissue; host or cells: pooled ("fused") human liver microsomes
T2 sequence (P11712 whole entry, the tested form may be a part): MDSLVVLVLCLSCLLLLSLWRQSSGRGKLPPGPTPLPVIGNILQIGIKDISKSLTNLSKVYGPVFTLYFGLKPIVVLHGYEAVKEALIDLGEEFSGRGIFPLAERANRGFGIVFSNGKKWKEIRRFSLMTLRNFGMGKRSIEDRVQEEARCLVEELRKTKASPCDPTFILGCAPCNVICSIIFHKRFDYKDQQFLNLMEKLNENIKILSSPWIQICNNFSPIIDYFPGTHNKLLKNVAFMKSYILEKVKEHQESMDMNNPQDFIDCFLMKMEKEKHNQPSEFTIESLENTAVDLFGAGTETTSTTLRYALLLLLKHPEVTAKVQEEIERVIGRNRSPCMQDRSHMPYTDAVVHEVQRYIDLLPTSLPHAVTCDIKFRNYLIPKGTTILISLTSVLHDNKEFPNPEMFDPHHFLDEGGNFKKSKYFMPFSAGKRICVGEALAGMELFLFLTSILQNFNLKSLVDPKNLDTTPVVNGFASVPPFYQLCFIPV
From the text: as §1

CYP2C19 = biological target: T3, CYP2C19 (Homo sapiens, UniProt P33261); test: Inhibition of human liver microsomal cytochrome P450 CYP2C19; format: in vitro ADME; settings: human liver microsomes, probe substrate, NADPH
T3 construct: fused human liver microsomes were selected as a CYP450 enzyme source; from tissue; host or cells: pooled ("fused") human liver microsomes
T3 sequence (P33261 whole entry, the tested form may be a part): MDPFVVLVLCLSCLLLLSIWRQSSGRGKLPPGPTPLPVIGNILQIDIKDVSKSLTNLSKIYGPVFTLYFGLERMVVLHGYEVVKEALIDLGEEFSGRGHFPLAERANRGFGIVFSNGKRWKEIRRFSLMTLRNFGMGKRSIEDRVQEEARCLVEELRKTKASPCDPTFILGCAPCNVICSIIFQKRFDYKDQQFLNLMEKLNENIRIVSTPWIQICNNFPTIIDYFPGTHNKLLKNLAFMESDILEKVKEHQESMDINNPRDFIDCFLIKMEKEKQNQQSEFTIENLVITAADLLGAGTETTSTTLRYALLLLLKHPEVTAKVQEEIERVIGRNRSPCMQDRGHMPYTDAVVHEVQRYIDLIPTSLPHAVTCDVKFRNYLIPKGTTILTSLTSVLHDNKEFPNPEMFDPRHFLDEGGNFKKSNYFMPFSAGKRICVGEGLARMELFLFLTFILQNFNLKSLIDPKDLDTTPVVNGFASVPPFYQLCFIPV
From the text: as §1

CYP2D6 = biological target: T4, CYP2D6 (Homo sapiens, UniProt P10635); test: Inhibition of human liver microsomal cytochrome P450 CYP2D6; format: in vitro ADME; settings: human liver microsomes, probe substrate, NADPH
T4 construct: fused human liver microsomes were selected as a CYP450 enzyme source; from tissue; host or cells: pooled ("fused") human liver microsomes
T4 sequence (P10635 whole entry, the tested form may be a part): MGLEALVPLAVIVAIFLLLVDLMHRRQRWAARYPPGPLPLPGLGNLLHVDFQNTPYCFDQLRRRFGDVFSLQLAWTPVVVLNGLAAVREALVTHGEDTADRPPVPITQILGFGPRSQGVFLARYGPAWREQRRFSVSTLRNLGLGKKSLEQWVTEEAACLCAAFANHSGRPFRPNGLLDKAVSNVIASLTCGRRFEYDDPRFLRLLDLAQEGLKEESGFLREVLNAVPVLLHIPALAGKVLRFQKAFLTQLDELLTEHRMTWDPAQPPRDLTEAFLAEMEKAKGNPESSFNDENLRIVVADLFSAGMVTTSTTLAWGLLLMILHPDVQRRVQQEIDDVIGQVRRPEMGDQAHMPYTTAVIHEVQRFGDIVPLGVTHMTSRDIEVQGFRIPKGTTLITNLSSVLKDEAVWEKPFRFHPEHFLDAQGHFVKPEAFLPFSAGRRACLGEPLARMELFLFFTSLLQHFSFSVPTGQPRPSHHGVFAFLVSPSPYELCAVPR
From the text: as §1

CYP3A4 = biological target: T5, CYP3A4 (Homo sapiens, UniProt P08684); test: Inhibition of human liver microsomal cytochrome P450 CYP3A4; format: in vitro ADME; settings: human liver microsomes, two probe substrates, NADPH
T5 construct: fused human liver microsomes were selected as a CYP450 enzyme source; from tissue; host or cells: pooled ("fused") human liver microsomes
T5 sequence (P08684 whole entry, the tested form may be a part): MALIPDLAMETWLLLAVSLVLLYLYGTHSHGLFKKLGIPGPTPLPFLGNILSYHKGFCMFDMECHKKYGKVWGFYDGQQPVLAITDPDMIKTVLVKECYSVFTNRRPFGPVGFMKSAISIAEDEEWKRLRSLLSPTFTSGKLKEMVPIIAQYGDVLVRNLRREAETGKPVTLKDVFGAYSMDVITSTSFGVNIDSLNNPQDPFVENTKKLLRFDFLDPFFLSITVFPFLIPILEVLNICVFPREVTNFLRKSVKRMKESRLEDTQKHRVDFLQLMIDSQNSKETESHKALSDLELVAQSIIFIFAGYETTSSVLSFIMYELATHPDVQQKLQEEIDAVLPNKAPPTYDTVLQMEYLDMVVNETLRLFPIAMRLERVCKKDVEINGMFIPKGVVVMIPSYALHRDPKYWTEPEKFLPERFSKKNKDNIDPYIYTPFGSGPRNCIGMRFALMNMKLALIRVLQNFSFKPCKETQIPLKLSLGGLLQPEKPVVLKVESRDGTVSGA
From the text: as §1

[2] = Corneal and plasma drug concentration after eye drops in rats; format: in vivo; settings: for entry into the cornea by eye drops: SD rats, result in words
Protocol: Objective: To Study the Ratio of Corneal to Plasma Drug Concentration After Eye Drops in Rats
Experimental Materials: Male SD Rats, 200-300 g, 7-9 weeks old, Shanghai Lingchang
Experimental procedures: The candidate compound was prepared as a clear solution, and administered to SD rats by eye drops. The vehicle for eye drops was 10% hydroxypropyl β-cyclodextrin aqueous solution, and the drug concentration in the eye drops was 5 mg/mL. Corneal and whole blood samples were collected at 1 and 4 hours, respectively. The corneal samples was homogenized in 15 mM phosphate buffer (PBS): MeoH (2:1, v: v) buffer, the whole blood samples were centrifuged at 3000 r for 10 min, and the supernatant plasma samples were separated. 20 μL of the plasma samples and homogenate samples were mixed with 400 μL of acetonitrile precipitated proteins containing an internal standard, respectively, and 2 μL of the supernatant was injected by centrifugation. The plasma concentrations were quantified by LC-MS/MS analysis; the drug concentrations in the cornea and plasma were measured respectively according to different time points, and the ratio of corneal/plasma concentrations was calculated.

Row | IC50 (CYP1A2) | IC50 (CYP2C9) | IC50 (CYP2C19) | IC50 (CYP2D6) | IC50 (CYP3A4) | entry into the cornea by eye drops [2] | concentration at 1 h ([2]; male, Sprague-Dawley (SD), rat, cornea, topical, eye drops 5 mg/mL, 1 h, read-out: Corneal Concentration) | concentration at 4 h ([2]; male, Sprague-Dawley (SD), rat, cornea, topical, eye drops 5 mg/mL, 4 h, read-out: Corneal Concentration) | Kp at 1 h ([2]; male, Sprague-Dawley (SD), rat, cornea/plasma, topical, eye drops 5 mg/mL, 1 h, read-out: Corneal Concentration/Plasma Concentration C/P ratio) | Kp at 4 h ([2]; male, Sprague-Dawley (SD), rat, cornea/plasma, topical, eye drops 5 mg/mL, 4 h, read-out: Corneal Concentration/Plasma Concentration C/P ratio) | concentration at 1 h ([2]; male, Sprague-Dawley (SD), rat, plasma, topical, eye drops 5 mg/mL, 1 h, read-out: Plasma Concentration) | concentration at 4 h ([2]; male, Sprague-Dawley (SD), rat, plasma, topical, eye drops 5 mg/mL, 4 h, read-out: Plasma Concentration) | SMILES | percentage content of complexed products at 254 nm ([1]; Time 10 min) | percentage content of complexed products at 254 nm ([1]; Time 100 min) | percentage content of complexed products at 254 nm ([1]; Time 200 min) | percentage content of complexed products at 254 nm ([1]; Time 300 min) | Area under the curve AUC [1] | Slope (linear equation of percentage content of complexed products vs time) [1]
1 | – | – | – | – | – | – | – | – | – | – | – | – | CC(C)(O)c1nc(-c2ccc(N)c(C(C)(C)O)n2)ccc1N [Compound 1] | 0.917% | 4.909% | 4.383% | 6.224% | 1257 min. Conversion | 0.0157
2 | – | – | – | – | – | – | – | – | – | – | – | – | CC(C)(O)c1ccc(-n2cc(C(C)(C)O)c(N)cc2=O)cc1N [Compound 9] | 12.268% | 31.427% | 43.086% | 48.761% | 10284 min. Conversion | 0.1241
3 | – | – | – | – | – | – | – | – | – | – | – | – | CC(C)(O)c1ncc(-c2cnc(C(C)(C)O)c(N)c2)cc1N [Compound 4] | 1.475% | 7.663% | 13.353% | 18.636% | 3061 min. Conversion | 0.0589
4 | – | – | – | – | – | – | – | – | – | – | – | – | CC(C)(O)c1cc(F)c(Oc2ccc(N)c(C(C)(C)O)n2)cc1N [Compound 6] | 9.738% | 27.850% | 37.847% | 41.686% | 8953 min. Conversion | 0.1083
5 | > 50 µM | > 50 µM | > 50 µM | > 50 µM | > 50 µM | could enter the cornea by eye drops | 1660 nM | 167 nM | 12 | 3.72 | 148 nM | 36.4 nM | CC(C)(O)c1cc(Cl)c(-c2cnc(C(C)(C)O)c(N)c2)cc1N [Compound 8] | 4.117% | 12.121% | 15.49% | 19.873% | 3879 min. Conversion | 0.0519
6 | – | – | – | – | – | – | – | – | – | – | – | – | CC(C)(O)c1nc(Oc2ccc(N)c(C(C)(C)O)n2)ccc1N [Compound 2] | 2.658% | 4.097% | 4.721% | 5.796% | 1271 min. Conversion | 0.0103
7 | – | – | – | – | – | could enter the cornea by eye drops | – | – | – | – | – | – | CC(C)(O)c1cc(F)c(-c2cnc(C(C)(C)O)c(N)c2)cc1N [Compound 7] | 6.634% | 20.013% | 29.424% | 36.039% | 6944 min. Conversion | 0.1002
